Assays:
RXR α, β, γ = experiment: Activity for RXR (CAT reporter in HaCaT cells); format: cell-based; settings: 1 μM, CAT ELISA
Protocol: (§1) The effect of the retinol derivatives on the activity of RAR and RXR was examined as follows.
(§2) Experimental procedure: Recombinant gene of DR5-tk-CAT or DR1-tk-CAT comprising DR1 or DR5 as a response element of RAR/RXR, […] promoter, and CAT (chloramphenicol acetyl transferase) was suitably combined with a plasmid DNA that expresses RAR α, β, γ and cotransfected to HaCaT cell line, a skin cancer cell line, with Lipofectamin (GibcoBRL). Then, the cells were incubated in DMEM/10% FBS medium for 1 day, retinol derivative was added in a concentration of 1 μM, and the cells were incubated again for 1 day under the condition of 5% CO2 and 37° C. The cells were washed with phosphate-buffered salione (PBS). Proteins were extracted from each cell, the activity of β-galactosidase was assayed, and the amount of protein was measured to determine the transfection efficiency. Further, the degree of transcription for RAR or RXR was analyzed by CAT ELISA (Roche Molecular Biochemicals, Mannheim, Germany).

[1] = Thermal stability test (quantitative HPLC); format: physicochemical; settings: humidity 58%, in % (unit assumed)
Protocol: In order to compare thermal stability of the compound of formula (1) with retinol, phase stability for 1 month in a thermohygrostat (humidity: 58%) of room temperature, 40° C., and 4° C. was examined by a quantitative HPLC analysis under the following condition.
1) Column: Capcellpak UG 120 (5 μm, 4.6 mm*150 mm, shiseido, Japan)
3) Detector: UV(PDA 326 nm), • Fluorescence: Ex: 326nrm, Em: 460 nm

RAR α = biological target: T1, RAR α (Homo sapiens, UniProt P10276); experiment: Activity for RAR α (CAT reporter in HaCaT cells); format: cell-based; settings: 1 μM, CAT ELISA
T1 construct: expressed in transfected cells; host or cells: HaCaT
T1 sequence (P10276 1-462): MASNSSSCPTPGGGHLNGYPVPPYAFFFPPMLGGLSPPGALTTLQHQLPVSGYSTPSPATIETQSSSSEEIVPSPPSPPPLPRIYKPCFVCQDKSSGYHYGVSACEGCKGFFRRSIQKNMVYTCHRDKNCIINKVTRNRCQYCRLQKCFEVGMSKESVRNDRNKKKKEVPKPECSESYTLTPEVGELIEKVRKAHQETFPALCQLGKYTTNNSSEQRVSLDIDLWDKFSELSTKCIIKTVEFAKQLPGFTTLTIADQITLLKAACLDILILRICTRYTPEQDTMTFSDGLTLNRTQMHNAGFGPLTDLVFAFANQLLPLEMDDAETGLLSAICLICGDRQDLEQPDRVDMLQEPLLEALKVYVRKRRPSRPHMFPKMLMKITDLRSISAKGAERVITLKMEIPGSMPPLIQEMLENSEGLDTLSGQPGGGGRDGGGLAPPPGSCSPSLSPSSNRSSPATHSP
Protocol: as §1, §2

[2] = system: Normal human fibroblast (Newborn, passage: 6); experiment: Collagen synthesis test (Sircol collagen assay); format: cell-based; settings: for increasing effect for collagen synthesis over control group treated only by DMEM: 2 days
Protocol: The effect for collagen synthesis of the compound of formula (1) was examined by using retinol, retinoic acid, and derivatives thereof as comparison compounds to confirm its utility as inhibitors for skin aging as follows. The results are represented in FIG. 2.
Cell: Normal human fibroblast (Newborn, passage: 6)
Medium: DMEM containing 10% FBS→DMEM free of FBS was used when cells were treated with samples.
Concentration: A range of concentration where the samples exert no toxicity to the cells was selected through a cell toxicity test ? 0.000001%, 0.00001%(w/v)
Procedure: 1×10^5 cells/well were inoculated into a 6-well plate. Cells were cultured to show about 79–80% confluent. Cells were treated with test samples and incubated for 2 days (FBS was not added to the medium when cells were treated with samples). After 2 days, cell medium and cells were separated from each other and respectively stored in a refrigerator. The cell extract was subjected to the protein analysis (BCA Protein Assay Kit, PIERCE 23225) and the medium was subjected to collagen analysis.
After the medium was removed, a small amount of PBS was added. Cells were scraped with a scraper. 1N NaOH (100 μl) and distilled water (400 μl) were added and the resulting mixture was allowed to stand overnight. Then, the protein analysis was carried out.
Collagen analysis: Analysis kit (Sircol Collagen assay kit—a dye that specifically combines with soluble collagen is used)
1.0 ml of Sircol Dye Reagent was introduced into each tube and mixed for 30 minutes. The mixture was centrifuged for 10 minutes at 5,000 g or more and the supernatant was removed. 1.0 ml Sircol Alkali Reagent was added, slowly mixed, and absorbance at 540 nm was measured. The amount of protein was converted into the value of collagen analysis (see: Mechanism of Aging and Development 73, 179–187, 1994).
After the above experiment, the increasing ratio for collagen synthesis of the test group over the control group treated only by DMEM was depicted in FIG. 2.

[3] = system: AP-1 (comprising c-Jun protein); experiment: Inhibition of activity of AP-1 protein (Coll-CAT collagenase promoter reporter in HaCaT cells); format: cell-based; settings: for inhibition of the expression of collagenase: cells treated together with RAR α (c-Jun expressed)
Protocol: AP-1 (comprising c-Jun protein) is a transcription factor inducing the expression of collagenase that is a major cause of skin wrinkles. […] Therefore, studies thereabout were carried out in a similar manner to Experiment 6 as follows.
Experimental procedure: CAT reporter (Coll-CAT) having the collagenase promoter wherein AP-1 response element (TRE) is contained, was transfected into HaCaT cell line, a skin cancer cell line, using a liposome. Then, the degree of inhibition against the activity of AP-1 by retinol derivatives was measured through CAT ELISA in a similar manner to Experiment 6. Further, the effect of retinol derivatives on the transcriptional activity of c-Jun (a protein that induces transfer of cancer, skin aging and inflammation, and consists of homologous isomers or heterologous isomers), a constitutional element of AP-1, was examined by cotransfecting c-Jun or RAR α expression vector.

[4] = Condition of expression: c-Jun + RAR α, HaCaT, Coll-CAT, untreated = 8.6
[5] = Condition of expression: c-Jun, HaCaT, Coll-CAT, untreated = 8.6
[6] = Condition of expression: — (no c-Jun or RAR α vector), HaCaT, Coll-CAT, untreated = 1.0

SMILES: CC1=C(/C=C/C(C)=C/C=C/C(C)=C/CO)C(C)(C)CCC1 [Retinol]
- Relative activity against RXR α, β, γ (RXR α, β, γ; Control = 1.0): 1.0
- Relative activity against RXR α, β, γ (RXR α, β, γ; Control = 1.0, listed as retinol): no activity
- Thermal stability (amount by quantitative HPLC) ([1]; After 1 week, 4° C.): 100
- Thermal stability (amount by quantitative HPLC) ([1]; After 1 week, 40° C.): 56.08
- Thermal stability (amount by quantitative HPLC) ([1]; After 1 week, r.t.): 74.27
- Thermal stability (amount by quantitative HPLC) ([1]; After 2 weeks, 4° C.): 98.23
- Thermal stability (amount by quantitative HPLC) ([1]; After 2 weeks, 40° C.): 43.26
- Thermal stability (amount by quantitative HPLC) ([1]; After 2 weeks, r.t.): 65.23
- Thermal stability (amount by quantitative HPLC) ([1]; After 4 weeks, 4° C.): 95.52
- Thermal stability (amount by quantitative HPLC) ([1]; After 4 weeks, 40° C.): 34.51
- Thermal stability (amount by quantitative HPLC) ([1]; After 4 weeks, r.t.): 52.23
- Thermal stability (amount by quantitative HPLC) ([1]; Initial value, 4° C.): 100
- Thermal stability (amount by quantitative HPLC) ([1]; Initial value, 40° C.): 100
- Thermal stability (amount by quantitative HPLC) ([1]; Initial value, r.t.): 100
- Relative activity against RAR α (RAR α; Control = 1.0): 27.5
- increasing effect for collagen synthesis over control group treated only by DMEM ([2]; 10^−6% (W/V), human fibroblast): 4.94%
- Relative inhibition against the expression of collagenase [3, 4]: 5.8
- Relative inhibition against the expression of collagenase [3, 5]: 7.3
- Relative inhibition against the expression of collagenase [3, 6]: 0.8
- inhibition of the expression of collagenase [3]: about 33%

SMILES: CC1=C(/C=C/C(C)=C/C=C/C(C)=C/COC(=O)/C=C(C)/C=C/C=C(C)/C=C/C2=C(C)CCCC2(C)C)C(C)(C)CCC1 [Compound of formula (1), Retinyl retinoate]
- Relative activity against RXR α, β, γ (RXR α, β, γ; Control = 1.0): 1.0
- Thermal stability (amount by quantitative HPLC) ([1]; After 1 week, 4° C.): 100
- Thermal stability (amount by quantitative HPLC) ([1]; After 1 week, 40° C.): 74.46
- Thermal stability (amount by quantitative HPLC) ([1]; After 1 week, r.t.): 92.77
- Thermal stability (amount by quantitative HPLC) ([1]; After 2 weeks, 4° C.): 100
- Thermal stability (amount by quantitative HPLC) ([1]; After 2 weeks, 40° C.): 70.25
- Thermal stability (amount by quantitative HPLC) ([1]; After 2 weeks, r.t.): 90.45
- Thermal stability (amount by quantitative HPLC) ([1]; After 4 weeks, 4° C.): 99.65
- Thermal stability (amount by quantitative HPLC) ([1]; After 4 weeks, 40° C.): 68.23
- Thermal stability (amount by quantitative HPLC) ([1]; After 4 weeks, r.t.): 89.21
- Thermal stability (amount by quantitative HPLC) ([1]; Initial value, 4° C.): 100
- Thermal stability (amount by quantitative HPLC) ([1]; Initial value, 40° C.): 100
- Thermal stability (amount by quantitative HPLC) ([1]; Initial value, r.t.): 100
- Relative activity against RAR α (RAR α; Control = 1.0): 22.5
- Relative activity against RAR α (RAR α; Control = 1.0, listed as compound of formula (1)): relatively specific and high activity
- effect for collagen synthesis (FIG. 2), comparison in words ([2]; 0.000001%, 0.00001%(w/v), human fibroblast): superior effect for collagen synthesis at low concentration to retinol or retinoic acid
- collagen synthesis effect relative to retinol at the same concentration ([2]; 10^−6% (W/V)): about 10 times
- increasing effect for collagen synthesis over control group treated only by DMEM ([2]; 10^−6% (W/V), human fibroblast): 41.29%
- Relative inhibition against the expression of collagenase [3, 4]: 4.1
- Relative inhibition against the expression of collagenase [3, 5]: 6.7
- Relative inhibition against the expression of collagenase [3, 6]: 0.7
- effect on / inhibitory activity against c-Jun (AP-1), in words ([3]; HaCaT, Coll-CAT, c-Jun / RAR α cotransfection): lower inhibitory activity against c-Jun than retinoic acid, but higher one than retinol
- inhibition of the expression of collagenase [3]: about 52%

Reference: US7173062B2, “Method for the improvement of skin wrinkles using retinyl retinoate” (Enprani Co., Ltd., priority 2001, dated 2007)
